We go through two compounds from patent publication US20090004474A1, “Lyocell fibers with anti-microbial activity” (Weyerhaeuser Co., priority 2007, published 2009).

Structures are written as SMILES.

One assay relates to E coli. Briefly: Growth medium study, antimicrobial test of meltblown fibers against E. coli. It counts as cell-based. As to conditions: compared to a control at the same time; for reduction of E. coli colony forming units at twenty four hours compared to a control: 24 hours.
For a further assay, the system named is C. Albicans. The experiment in a line: Growth medium study, antimicrobial test of meltblown fibers against C. albicans. Format: cell-based. The following applies: compared to a control at the same time. The method, then:
Growth Medium Study Procedure
C. albicans: Prep Culti-Loop in 1.0 ml of sterile dilute PBS
ATCC 10231 Solution for 10 min. Streak onto SDA and grow for 24 hours @ 35 C
a. Prepare 9.0 ml dilute PBS tubes. Remove (wash) each culture organism from slants and add to PBS tubes.
Adjust so the turbidity of the culture matches a 0.5 McFarland solution (In BAM Media Pages). This is the stock culture solution. (S. aureus & E. coli, C. albicans.)
c. For C. albicans add 1.0 ml stock culture solution to 1.0 liter of MGM. (about […] final population)
6. Specialized MGM solutions for each Organism: • a. S. aureus: 94.4 ml stock PBS+849.6 DI water; adjust pH & sterilize. (or […] pre-diluted PBS Stock solution). (2X+2)200=2000 ml for 4. • ADD: 1.0 ml MSM • 50 ml BME vitamins. • 5 ml 1% Peptone. • 1.0 ml diluted Bacterial Culture (pre-made) • b. E. coli: 94.9 ml stock PBS+854.1 ml DI water; adjust pH & sterilize. (or 949 ml pre-diluted PBS Stock solution). (2X+2)200=2000 ml for 4. • ADD: 1.0 ml MSM • 50 ml BME vitamins. • 1.0 ml diluted Bacterial Culture (pre-made) • c. C. albicans: 92.9 ml stock PBS+836.1 ml DI water; adjust pH & sterilize. (or 929 ml pre-diluted PBS Stock solution). (2X+2)200=2000 ml for 4. • ADD: 1.0 ml MSM • 50 ml BME vitamins. • 20 ml 10% Peptone. • 10 ml 10% (NH4)2SO4 • 1.0 ml of Undiluted Bacterial Culture (pre-made) 7. Product to test:
a. […]

Description for E coli: E. coli: Prep Culti-Loop in 1.0 ml sterile TSB for 10 min.
ATCC 8739 Streak to TSA slant and grow for 24 hours @ 35 C
For S. aureus and E. coli, make 1:100 dilution of stock culture solution, and add 1.0 ml of the diluted solution to 1.0 liter of MGM.
S. aureus: 94.4 ml stock PBS+849.6 DI water; adjust pH & sterilize. (or 994 ml pre-diluted PBS Stock solution). (2X+2)200=2000 ml for 4. • ADD: 1.0 ml MSM • 50 ml BME vitamins. • 5 ml 1% Peptone. • 1.0 ml diluted Bacterial Culture (pre-made) • b. E. coli: 94.9 ml stock PBS+854.1 ml DI water; adjust pH & sterilize. (or 949 ml pre-diluted PBS Stock solution). (2X+2)200=2000 ml for 4. • ADD: 1.0 ml MSM • 50 ml BME vitamins. • 1.0 ml diluted Bacterial Culture (pre-made) • c. C. albicans: 92.9 ml stock PBS+836.1 ml DI water; adjust pH & sterilize. (or 929 ml pre-diluted PBS Stock solution). (2X+2)200=2000 ml for 4. • ADD: 1.0 ml MSM • 50 ml BME vitamins. • 20 ml 10% Peptone. • 10 ml 10% (NH4)2SO4 • 1.0 ml of Undiluted Bacterial Culture (pre-made) 7. Product to test:
Prep enough sterile 250 Plastic Bottles to handle 2 repetitions of each organism plus pos. and neg. control. (45 flasks are needed to test 6 products.) • B. Label all Plastic Bottles with organism (Staph, E. coli, C alb.), plus Sequential Number (W-1,W-2 . . . , W-45). • c. Add 2.0 gm of each product to be tested to each Plastic Bottle (or a sterile blender if Sample is not soft), then add 200 ml of inoculated MGM. Incubate, with shaking (in wire milk case—attached to shaker waterbath—plus one or two plastic cases) for 4 and 24 hours at 37 C Run duplicate tests. […] Run two bottles for each organism containing 200 ml of inoculated MGM, without Weyerhaeuser Sample. These are Blanks. • f. Run positive controls, TSB in place of Sample (see below) for each organism type. […] Incubation and counting. • a. […]

Take `O=C([O-])[O-].[Ca+2]` [calcium carbonate, Calcium carbonate]: the “reduction of E. coli colony forming units at four hours compared to a control” value in the assay with E coli (4 hours) was “more than ninety five”. For the same compound, in the assay with E coli, the “reduction of E. coli colony forming units at twenty four hours compared to a control” value is on record as “more than ninety five”.

Consider `[O]=[Zn]` [Zinc oxide], for which the “reduction of E. coli colony forming units at twenty four hours compared to a control” value in the assay on E coli is on record as “at least ninety five”. Also, the “reduction of C. albicans count at four hours compared to a control” value in the assay with C. Albicans (4 hours) was “at least ninety five”. The “reduction of C. albicans count at twenty four hours compared to a control” value in the assay on C. Albicans (24 hours) was “at least ninety five”.
